# Target: T1, 2-Hydroxyacid oxidase 1 (Homo sapiens, UniProt Q9UJM8)
# T1 sequence (Q9UJM8 whole entry): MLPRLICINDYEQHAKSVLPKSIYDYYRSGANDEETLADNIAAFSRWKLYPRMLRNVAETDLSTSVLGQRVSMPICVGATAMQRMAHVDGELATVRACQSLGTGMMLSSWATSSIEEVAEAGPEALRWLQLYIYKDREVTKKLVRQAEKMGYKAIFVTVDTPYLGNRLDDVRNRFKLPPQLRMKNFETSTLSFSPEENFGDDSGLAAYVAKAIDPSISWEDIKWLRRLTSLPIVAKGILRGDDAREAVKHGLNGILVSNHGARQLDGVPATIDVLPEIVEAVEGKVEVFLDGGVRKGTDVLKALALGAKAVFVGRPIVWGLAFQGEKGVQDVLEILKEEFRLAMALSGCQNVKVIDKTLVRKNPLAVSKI
# Experiment: In-Vitro Human Glycolate Oxidase (hGOX) Assay: The in-vitro glycolate oxidase assay was performed using recombinant full-length human hydroxyacid oxidase 1 (HAO1), the equivalents of hGOX. The enzyme was obtained from AbCam (Catalog #ab113144) and was purified using conventional chromatography to >95% purity. Purified HAO1 was dissolved in assay buffer consisting of 10 mM NaCl, 110 mM KCl, 2 mM MgCl2, 50 mM HEPES (pH 7.4), and 0.01% Triton™ X-100. The assay used Corning 3575 384-well flat bottom, low flange, non-binding surface, black polystyrene plates.Test compounds in DMSO were preincubated at different concentrations with purified recombinant human GO (6 nM) for 10 min, followed by the addition of glycolate substrate (85 μM) to start the reaction. The plates were incubated for 10 min at room temperature, at which point Amplex red reagent (50 μM) was added.The fluorescence intensity signal was measured on a VariosKan LUX instrument using an excitation of 560 nm and an emission of 590 nm. The IC50 values were calculated using Graphpad Prism.
structure (smiles),measurement,value
CC(C)CC#Cc1cccc(S(=O)(=O)c2[nH]nnc2C(=O)O)c1,IC50,4.7 µM

# From ChEMBL document CHEMBL5729440, “Compounds and methods for treating oxalate-related diseases” (2022)
